For experiment [1], the system named is MV-4-11 cells. In words: Cell viability assay (CellTiter-Glo), MV-4-11. It counts as cell-based. The conditions noted are these: Homo sapiens, MV4-11, 24 hours incubation, 1% FBS, read-out: Average pIC50 by molecule MV-4-11 (converted). From the text:
(§1) The effect of various compounds of the invention on the viability of OPM-2, MV-4-11 and ARH-77 cell lines was investigated, using the CTG protocol described below.
(§2) OPM-2 and MV-4-11 cell lines are derived from multiple myeloma and acute myeloid leukaemia, respectively. Both cell lines are described in the literature as MCL-1 dependent lines, as opposed to lymphoblast-like ARH-77 cell line, which is described as independent of MCL-1 (Tron A E et al. Nat Commun. 2018; 9: 5341; Caenepeel S et al. Cancer Discov. 2018 December; 8(12):1582-1597).
(§3) Cells (OPM-2, MV-4-11 or ARH-77) were seeded on […] in a growth medium with FBS reduced to 1%. Next, compound stocks were pre-diluted in DMSO and added directly to the cells growth medium (final DMSO concentration: 0.5%). Compound concentrations used in this assay: 1/3 dilutions starting at 30 uM (9 to 12 points).
(§4) After 24 hours of incubation, cell viability was evaluated using CellTiter-Glo Luminescent Cell Viability Assay (Promega, cat #G7572). Luminescence signal was measured using a CLARIOstar Plus Multi-Mode Microplate Reader (574-590 nm).
(§5) Results were normalized to DMSO control.
A general note: ATP-based viability assays read luminescence as a measure of living cells.

The subject of experiment [2] is ARH-77 cells. The experiment is described as follows: Cell viability assay (CellTiter-Glo), ARH-77. It counts as cell-based. Particulars: Homo sapiens, ARH-77, 24 hours incubation, 1% FBS, read-out: Average pIC50 by molecule ARH-77 (converted).
From the text: as §1, §2, §3, §4, §5

Experiment [3] addresses [MCL-1]-[compound of formula (I)]-[CRBN/DDB1] complex (Homo sapiens, UniProt Q07820+Q96SW2). The experiment is described as follows: AlphaLISA dose response ternary complex formation assay. It is filed as binding. The conditions noted are these: read-out: AlphaLISA dose response Average pEC50 by molecule (converted). As to the method: The effect of the bifunctional compounds of the invention on the formation of a ternary complex composed of [MCL-1]-[compound of formula (I)]-[CRBN/DDB1] was investigated with two methods: AlphaLISA dose response assay or HTRF ternary complex assay.
Two types of protein solution were prepared: • 40 nM biotinylated hMCL-1, 40 μg/ml AlphaScreen Streptavidin-coated Donor Beads in PBS buffer with 0.1% Tween-20 and 1 mM DTT, • 200 nM 6×His-CRBN/Strep-DDB1, 40 μg/ml AlphaLISA Anti-6×His Acceptor beads in PBS buffer with 0.1% Tween-20 and 1 mM DTT.
The prepared solutions were incubated at room temperature for 45 min and then the solution containing the donor beads was mixed with the solution containing the acceptor beads.
The tested compounds were dispensed onto a white 384-well AlphaPlate 384 SW. DMSO was backfilled to all wells, resulting in a final DMSO content of 2%. Wells containing only DMSO served as background. Next, 10 μl of solution with donor and acceptor beads was added to the wells.
The plate was sealed with transparent film and shaken using a VibroTurbulator for 60 see at room temperature, level 3. The plate was then spun down shortly (10 s, 1000 rcf, room temperature) and incubated at 25° C. for 30 min.
The read-out was performed with PerkinElmer Enspire Multimode Plate Reader (method for AlphaLISA 384-well low volume, Filterset: λexc=680 nm, λem=615 nm).
The results were analyzed as follows: • 1) an average of luminescence for background signal was calculated and used as a negative control; • 2) average of the maximum measured luminescence for 233 was calculated and used as an internal positive control; • 3) raw luminescence values were normalized against positive and negative controls; • 4) concentration points above the hook point were excluded; • 5) EC50 and pEC50 values were determined.
In general terms: Alpha assays give light when donor and acceptor beads are brought close together.

SMILES strings stand for the structures.

Sequence of [MCL-1]-[compound of formula (I)]-[CRBN/DDB1] complex (Q07820 whole entry): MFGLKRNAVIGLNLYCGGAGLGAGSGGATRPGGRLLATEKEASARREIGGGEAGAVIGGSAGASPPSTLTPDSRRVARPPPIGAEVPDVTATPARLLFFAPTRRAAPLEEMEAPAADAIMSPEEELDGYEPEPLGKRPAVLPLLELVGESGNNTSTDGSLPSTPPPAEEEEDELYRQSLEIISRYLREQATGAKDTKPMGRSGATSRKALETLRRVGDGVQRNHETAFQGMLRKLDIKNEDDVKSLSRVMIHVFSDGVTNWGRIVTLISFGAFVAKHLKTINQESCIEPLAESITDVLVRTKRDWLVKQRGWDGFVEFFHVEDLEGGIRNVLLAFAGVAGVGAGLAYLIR
Sequence of [MCL-1]-[compound of formula (I)]-[CRBN/DDB1] complex (Q96SW2 whole entry): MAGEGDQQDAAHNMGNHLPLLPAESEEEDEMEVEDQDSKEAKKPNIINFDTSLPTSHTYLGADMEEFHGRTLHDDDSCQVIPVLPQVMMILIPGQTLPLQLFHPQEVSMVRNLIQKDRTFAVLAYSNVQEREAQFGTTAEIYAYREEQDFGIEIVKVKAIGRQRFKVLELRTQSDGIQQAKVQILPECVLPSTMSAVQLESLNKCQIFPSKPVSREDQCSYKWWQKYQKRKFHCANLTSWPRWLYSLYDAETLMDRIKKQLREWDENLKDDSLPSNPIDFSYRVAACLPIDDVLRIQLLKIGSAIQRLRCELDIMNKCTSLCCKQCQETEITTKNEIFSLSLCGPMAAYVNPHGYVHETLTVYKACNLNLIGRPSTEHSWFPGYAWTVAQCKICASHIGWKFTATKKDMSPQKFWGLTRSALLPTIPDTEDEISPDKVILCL
Sequence of [MCL-1]-[compound of formula (I)]-[CRBN/DDB1] complex (Q16531 whole entry partner): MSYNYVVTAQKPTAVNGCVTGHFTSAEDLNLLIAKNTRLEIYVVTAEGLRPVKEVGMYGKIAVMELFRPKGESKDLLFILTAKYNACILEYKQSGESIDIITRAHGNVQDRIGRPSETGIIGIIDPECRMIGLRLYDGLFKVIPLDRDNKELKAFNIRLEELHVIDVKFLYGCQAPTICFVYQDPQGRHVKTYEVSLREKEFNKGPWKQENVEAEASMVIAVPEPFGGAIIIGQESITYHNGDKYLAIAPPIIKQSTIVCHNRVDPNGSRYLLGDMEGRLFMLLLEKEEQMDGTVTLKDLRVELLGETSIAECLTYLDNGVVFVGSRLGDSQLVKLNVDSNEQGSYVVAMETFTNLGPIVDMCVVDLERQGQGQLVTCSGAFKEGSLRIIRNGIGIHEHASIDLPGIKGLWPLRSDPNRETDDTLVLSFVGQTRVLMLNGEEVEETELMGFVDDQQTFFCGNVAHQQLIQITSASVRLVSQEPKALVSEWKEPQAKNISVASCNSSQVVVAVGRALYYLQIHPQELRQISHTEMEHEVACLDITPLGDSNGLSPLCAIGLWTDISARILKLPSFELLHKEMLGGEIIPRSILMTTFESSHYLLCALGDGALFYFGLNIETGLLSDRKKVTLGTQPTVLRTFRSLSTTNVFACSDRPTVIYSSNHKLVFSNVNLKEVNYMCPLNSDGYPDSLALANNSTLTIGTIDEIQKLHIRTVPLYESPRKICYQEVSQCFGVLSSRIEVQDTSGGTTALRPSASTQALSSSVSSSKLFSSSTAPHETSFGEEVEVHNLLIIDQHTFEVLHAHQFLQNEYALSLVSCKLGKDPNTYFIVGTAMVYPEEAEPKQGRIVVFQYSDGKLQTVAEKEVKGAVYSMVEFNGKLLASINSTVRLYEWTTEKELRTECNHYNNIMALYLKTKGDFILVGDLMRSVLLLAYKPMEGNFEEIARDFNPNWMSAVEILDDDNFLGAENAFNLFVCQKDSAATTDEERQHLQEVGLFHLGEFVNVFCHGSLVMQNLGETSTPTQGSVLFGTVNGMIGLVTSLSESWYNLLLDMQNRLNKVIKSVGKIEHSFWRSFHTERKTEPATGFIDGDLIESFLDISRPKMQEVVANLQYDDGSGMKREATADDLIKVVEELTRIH

As to `Cc1nn2c(c1-c1c(F)ccc3c(CCCOc4cccc5cc(F)ccc45)c(C(=O)O)n(CCN4CCN(C(=O)COc5cccc6c5CN(C5CCC(=O)NC5=O)C6=O)CC4)c13)COCC2` (stereo not drawn) [Compound 226, 1-{2-[4-(2-{[2-(2,6-dioxopiperidin-3-yl)-1-oxo-2,3-dihydro-1H-isoindol-4-yl]oxy}acetyl)piperazin-1-yl]ethyl}-6-fluoro-3-{3-[(6-fluoronaphthalen-1-yl)oxy]propyl}-7-{2-methyl-4H,6H,7H-pyrazolo[3,2-c][1,4]oxazin-3-yl}-1H-indole-2-carboxylic acid], the figures for the IC50 in experiment [1] and in experiment [2] were at most 100 nM and above 10000 nM, respectively. Further, the EC50 in experiment [3] was below 100 nM.
Consider `Cc1nn2c(c1-c1c(F)ccc3c(CCCOc4cccc5cc(F)ccc45)c(C(=O)O)n(CCN4CCN(C(=O)COc5cccc6c5CN(C5CCC(=O)NC5=O)C6=O)CC4)c13)OCC2` (stereo not drawn) [Compound 351, 1-{2-[4-(2-{[2-(2,6-dioxopiperidin-3-yl)-1-oxo-2,3-dihydro-1H-isoindol-4-yl]oxy}acetyl)piperazin-1-yl]ethyl}-6-fluoro-3-{3-[(6-fluoronaphthalen-1-yl)oxy]propyl}-7-{6-methyl-2H,3H-pyrazolo[3,2-b][1,3]oxazol-7-yl}-1H-indole-2-carboxylic acid], for which the IC50 is at most 316 nM in experiment [1] and above 31600 nM in experiment [2]. Also, the EC50 in experiment [3] was below 10 nM.
The matching figures for `Cc1nn(C)c(C)c1-c1c(Cl)ccc2c(CCCOc3cccc4cc(F)ccc34)c(C(=O)O)n(CCN3CCN(C(=O)COc4cccc5c4CN([C@H]4CCC(=O)NC4=O)C5=O)CC3)c12` (single isomer, unassigned) [Compound 296]: at most 31.6 nM, above 10000 nM and below 100 nM.
For the compound `Cc1nn(C)c(C)c1-c1c(Cl)ccc2c(CCCOc3cccc4cc(F)ccc34)c(C(=O)O)n(CCCOCCOc3cccc4c3CN(C3CCC(=O)NC3=O)C4=O)c12` (stereo not drawn) [Compound 329, 6-Chloro-1-[3-(2-{[2-(2,6-dioxopiperidin-3-yl)-1-oxo-2,3-dihydro-1H-isoindol-4-yl]oxy}ethoxy)propyl]-3-{3-[(6-fluoronaphthalen-1-yl)oxy]propyl}-7-(1,3,5-trimethyl-1H-pyrazol-4-yl)-1H-indole-2-carboxylic acid], the IC50 was at most 316 nM in experiment [1] and above 10000 nM in experiment [2]. Also, the EC50 in experiment [3] is below 100 nM.
In the same order, the values of `Cc1nn(C)c(C)c1-c1c(Cl)ccc2c(CCCOc3cccc4cc(F)ccc34)c(C(=O)O)n(CCN3CCN(C(=O)Cn4c(C)nc5c(C(=O)NC6CCC(=O)NC6=O)ccc(Cl)c54)CC3)c12` (stereo not drawn) [Compound 271, 6-Chloro-1-(2-(4-(2-(7-chloro-4-((2,6-dioxopiperidin-3-yl)carbamoyl)-2-methyl-1H-benzo[d]imidazol-1-yl)acetyl)piperazin-1-yl)ethyl)-3-(3-((6-fluoronaphthalen-1-yl)oxy)propyl)-7-(1,3,5-trimethyl-1H-pyrazol-4-yl)-1H-indole-2-carboxylic acid] are at most 100 nM, above 10000 nM and below 100 nM.
In the same order, the values of `Cc1nn(C)c(C)c1-c1c(Cl)ccc2c(CCCOc3cccc4cc(F)ccc34)c(C(=O)O)n(CCN3CCN(C(=O)[C@@H](C)Oc4cccc5c4C(=O)N(C4CCC(=O)NC4=O)C5=O)CC3)c12` (stereo partly drawn) [Compound 315, 6-Chloro-1-(2-{4-[(2R)-2-{[2-(2,6-dioxopiperidin-3-yl)-1,3-dioxo-2,3-dihydro-1H-isoindol-4-yl]oxy}propanoyl]piperazin-1-yl}ethyl)-3-{3-[(6-fluoronaphthalen-1-yl)oxy]propyl}-7-(1,3,5-trimethyl-1H-pyrazol-4-yl)-1H-indole-2-carboxylic acid] are at most 31.6 nM, above 3160 nM and below 100 nM.
In the same order, the values of `Cc1nn(C)c(C)c1-c1c(Cl)ccc2c(CCCOc3cccc4cc(F)ccc34)c(C(=O)O)n(CCN3CCC(CN4CCN(c5cc6c(cc5F)C(=O)N(C5CCC(=O)NC5=O)C6=O)CC4)CC3)c12` (stereo not drawn) [Compound 331, 6-Chloro-1-(2-(4-((4-(2-(2,6-dioxopiperidin-3-yl)-6-fluoro-1,3-dioxoisoindolin-5-yl)piperazin-1-yl)methyl)piperidin-1-yl)ethyl)-3-(3-((6-fluoronaphthalen-1-yl)oxy)propyl)-7-(1,3,5-trimethyl-1H-pyrazol-4-yl)-1H-indole-2-carboxylic acid] are at most 316 nM, above 10000 nM and below 100 nM.
With `Cc1nn(C)c(C)c1-c1c(Cl)ccc2c(CCCOc3cccc4ccccc34)c(C(=O)O)n(CCN3CCN(C(=O)COc4cccc5c4CN(C4CCC(=O)NC4=O)C5=O)CC34CC4)c12` (stereo not drawn) [Compound 292, 6-Chloro-1-(2-(7-(2-((2-(2,6-dioxopiperidin-3-yl)-1-oxoisoindolin-4-yl)oxy)acetyl)-4,7-diazaspiro[2.5]octan-4-yl)ethyl)-3-(3-(naphthalen-1-yloxy)propyl)-7-(1,3,5-trimethyl-1H-pyrazol-4-yl)-1H-indole-2-carboxylic acid], the IC50 in experiment [1] is at most 100 nM; in experiment [2], above 10000 nM. For the same compound, the EC50 in experiment [3] is below 10 nM.
The matching figures for `Cc1nn(C)c(C)c1-c1c(Cl)ccc2c(CCCOc3cccc4cc(F)ccc34)c(C(=O)O)n(CCN3CCN(C(=O)[C@@H](C)Oc4cccc5c4C(=O)N([C@H]4CCC(=O)NC4=O)C5=O)CC3)c12` (single isomer, unassigned) [Compound 317]: at most 31.6 nM, above 3160 nM and below 100 nM.
In the same order, the values of `Cc1nn(C)c(C)c1-c1c(Cl)ccc2c(CCCOc3cccc4ccccc34)c(C(=O)O)n(CCC3CCN(C(=O)COc4cccc5c4CN(C4CCC(=O)NC4=O)C5=O)CC3)c12` (stereo not drawn) [Compound 223, 6-chloro-1-{2-[1-(2-{[2-(2,6-dioxopiperidin-3-yl)-1-oxo-2,3-dihydro-1H-isoindol-4-yl]oxy}acetyl)piperidin-4-yl]ethyl}-3-[3-(naphthalen-1-yloxy)propyl]-7-(1,3,5-trimethyl-1H-pyrazol-4-yl)-1H-indole-2-carboxylic acid] are at most 316 nM, above 10000 nM and below 100 nM.
For the compound `Cc1nn(C)c(C)c1-c1c(Cl)ccc2c(CCCOc3cccc4cc(F)ccc34)c(C(=O)O)n(CCN3CCC(CN4CCN(c5cccc6c5C(=O)N(C5CCC(=O)NC5=O)C6=O)CC4)CC3)c12` (stereo not drawn) [Compound 332, 6-Chloro-1-(2-(4-((4-(2-(2,6-dioxopiperidin-3-yl)-1,3-dioxoisoindolin-4-yl)piperazin-1-yl)methyl)piperidin-1-yl)ethyl)-3-(3-((6-fluoronaphthalen-1-yl)oxy)propyl)-7-(1,3,5-trimethyl-1H-pyrazol-4-yl)-1H-indole-2-carboxylic acid], the IC50 is at most 1000 nM in experiment [1] and above 31600 nM in experiment [2]. For the same compound, in experiment [3], the EC50 was below 100 nM.
In the same order, the values of `Cc1nn(C)c(C)c1-c1c(Cl)ccc2c(CCCOc3cccc4cc(F)ccc34)c(C(=O)O)n(CCN3CCN(C(=O)Cn4c(C)nc5c(C(=O)NC6CCC(=O)NC6=O)cc(Br)cc54)CC3)c12` (stereo not drawn) [Compound 273, 1-{2-[4-(2-{6-Bromo-4-[(2,6-dioxopiperidin-3-yl)carbamoyl]-2-methyl-1H-1,3-benzodiazol-1-yl}acetyl)piperazin-1-yl]ethyl}-6-chloro-3-{3-[(6-fluoronaphthalen-1-yl)oxy]propyl}-7-(1,3,5-trimethyl-1H-pyrazol-4-yl)-1H-indole-2-carboxylic acid] are at most 316 nM, above 10000 nM and below 10 nM.
In the same order, the values of `Cc1nn(C)c(C)c1-c1c(Cl)ccc2c(CCCOc3cccc4cc(F)ccc34)c(C(=O)O)n(CCN3CCN(C(=O)[C@@H](C)Oc4cccc5c4C(=O)N([C@@H]4CCC(=O)NC4=O)C5=O)CC3)c12` (single isomer, unassigned) [Compound 316] are at most 100 nM, above 3160 nM and below 1000 nM.

The values above are taken from patent US20240294499A1, “TARGETED PROTEIN DEGRADATION USING BIFUNCTIONAL COMPOUNDS THAT BIND UBIQUITIN LIGASE AND TARGET MCL-1 PROTEIN” (Captor Therapeutics S.A., priority 2021, published 2024).
